Assay results reported in patent US20240336622A1 (The Board of Regents of The University of Texas System, priority 2021, published 2024).

Assays:
[1] = test system: UWB1, A673, Fadu, H2058, H1048, MDA-MB-468 cells; assay: Cytotoxicity in cancer cell lines with different genetic background (cell titer glo); assay type: cell-based; conditions: 1 μM for 96 hours
Source text: Cells were then subjected to cell titer glo analysis. Data represent mean±SEM.

[2] = test system: H889 and H82 cells; assay: Sensitivity of Talazoparib-resistant small cell lung cancer cells; assay type: cell-based

For CNCc1ccc(-c2[nH]c3cc(F)cc4c3c2CCNC4=O)cc1 [Rucaparib, rucaparib], the “sensitivity of cell lines (UWB1, A673, Fadu, H2058, H1048, MDA-MB-468)” value [1] was “different degrees of sensitivity”.

For Cn1ncnc1[C@H]1c2n[nH]c(=O)c3cc(F)cc(c23)N[C@@H]1c1ccc(F)cc1 [Talazoparib, talazoparib], the “sensitivity of H889 and H82 cells” value [2] was “resistant”.
